According to patent US8546414B2, “Ion channel modulators and methods of use” (Vertex Pharmaceuticals Incorporated, priority 2004, dated 2013):
Like-named read-outs stand apart in the source and are kept apart here.

Key:
[1] = target: T1, NaV1.3 (Homo sapiens, UniProt Q9NY46); details: read-out: TTX IC50; cited from earlier work
T1 construct: expressed in transfected cells; host or cells: HEK293

[2] = target: NaV1.6 (Homo sapiens, UniProt Q9UQD0); details: read-out: TTX IC50; cited from earlier work
[3] = target: T2, NaV1.8 (Homo sapiens, UniProt Q9Y5Y9); details: read-out: TTX IC50; cited from earlier work
[4] = target: NaV1.9 (Homo sapiens, UniProt Q9UI33); details: read-out: TTX IC50; cited from earlier work
[5] = target: NaV1.1 (Homo sapiens, UniProt P35498); details: read-out: TTX IC50; cited from earlier work
[6] = target: NaV1.2 (Homo sapiens, UniProt Q99250); details: read-out: TTX IC50; cited from earlier work
[7] = neuropathic pain; cited from earlier work
[8] = target: T3, CaV2.2 (Homo sapiens, UniProt Q00975); test: VIPR optical membrane potential assay with electrical stimulation, CaV2.2; type: cell-based; details: Table 9, CaV 2.2 receptors
T3 construct: expressed in transfected cells; host or cells: HEK293
T3 sequence (Q00975 whole entry): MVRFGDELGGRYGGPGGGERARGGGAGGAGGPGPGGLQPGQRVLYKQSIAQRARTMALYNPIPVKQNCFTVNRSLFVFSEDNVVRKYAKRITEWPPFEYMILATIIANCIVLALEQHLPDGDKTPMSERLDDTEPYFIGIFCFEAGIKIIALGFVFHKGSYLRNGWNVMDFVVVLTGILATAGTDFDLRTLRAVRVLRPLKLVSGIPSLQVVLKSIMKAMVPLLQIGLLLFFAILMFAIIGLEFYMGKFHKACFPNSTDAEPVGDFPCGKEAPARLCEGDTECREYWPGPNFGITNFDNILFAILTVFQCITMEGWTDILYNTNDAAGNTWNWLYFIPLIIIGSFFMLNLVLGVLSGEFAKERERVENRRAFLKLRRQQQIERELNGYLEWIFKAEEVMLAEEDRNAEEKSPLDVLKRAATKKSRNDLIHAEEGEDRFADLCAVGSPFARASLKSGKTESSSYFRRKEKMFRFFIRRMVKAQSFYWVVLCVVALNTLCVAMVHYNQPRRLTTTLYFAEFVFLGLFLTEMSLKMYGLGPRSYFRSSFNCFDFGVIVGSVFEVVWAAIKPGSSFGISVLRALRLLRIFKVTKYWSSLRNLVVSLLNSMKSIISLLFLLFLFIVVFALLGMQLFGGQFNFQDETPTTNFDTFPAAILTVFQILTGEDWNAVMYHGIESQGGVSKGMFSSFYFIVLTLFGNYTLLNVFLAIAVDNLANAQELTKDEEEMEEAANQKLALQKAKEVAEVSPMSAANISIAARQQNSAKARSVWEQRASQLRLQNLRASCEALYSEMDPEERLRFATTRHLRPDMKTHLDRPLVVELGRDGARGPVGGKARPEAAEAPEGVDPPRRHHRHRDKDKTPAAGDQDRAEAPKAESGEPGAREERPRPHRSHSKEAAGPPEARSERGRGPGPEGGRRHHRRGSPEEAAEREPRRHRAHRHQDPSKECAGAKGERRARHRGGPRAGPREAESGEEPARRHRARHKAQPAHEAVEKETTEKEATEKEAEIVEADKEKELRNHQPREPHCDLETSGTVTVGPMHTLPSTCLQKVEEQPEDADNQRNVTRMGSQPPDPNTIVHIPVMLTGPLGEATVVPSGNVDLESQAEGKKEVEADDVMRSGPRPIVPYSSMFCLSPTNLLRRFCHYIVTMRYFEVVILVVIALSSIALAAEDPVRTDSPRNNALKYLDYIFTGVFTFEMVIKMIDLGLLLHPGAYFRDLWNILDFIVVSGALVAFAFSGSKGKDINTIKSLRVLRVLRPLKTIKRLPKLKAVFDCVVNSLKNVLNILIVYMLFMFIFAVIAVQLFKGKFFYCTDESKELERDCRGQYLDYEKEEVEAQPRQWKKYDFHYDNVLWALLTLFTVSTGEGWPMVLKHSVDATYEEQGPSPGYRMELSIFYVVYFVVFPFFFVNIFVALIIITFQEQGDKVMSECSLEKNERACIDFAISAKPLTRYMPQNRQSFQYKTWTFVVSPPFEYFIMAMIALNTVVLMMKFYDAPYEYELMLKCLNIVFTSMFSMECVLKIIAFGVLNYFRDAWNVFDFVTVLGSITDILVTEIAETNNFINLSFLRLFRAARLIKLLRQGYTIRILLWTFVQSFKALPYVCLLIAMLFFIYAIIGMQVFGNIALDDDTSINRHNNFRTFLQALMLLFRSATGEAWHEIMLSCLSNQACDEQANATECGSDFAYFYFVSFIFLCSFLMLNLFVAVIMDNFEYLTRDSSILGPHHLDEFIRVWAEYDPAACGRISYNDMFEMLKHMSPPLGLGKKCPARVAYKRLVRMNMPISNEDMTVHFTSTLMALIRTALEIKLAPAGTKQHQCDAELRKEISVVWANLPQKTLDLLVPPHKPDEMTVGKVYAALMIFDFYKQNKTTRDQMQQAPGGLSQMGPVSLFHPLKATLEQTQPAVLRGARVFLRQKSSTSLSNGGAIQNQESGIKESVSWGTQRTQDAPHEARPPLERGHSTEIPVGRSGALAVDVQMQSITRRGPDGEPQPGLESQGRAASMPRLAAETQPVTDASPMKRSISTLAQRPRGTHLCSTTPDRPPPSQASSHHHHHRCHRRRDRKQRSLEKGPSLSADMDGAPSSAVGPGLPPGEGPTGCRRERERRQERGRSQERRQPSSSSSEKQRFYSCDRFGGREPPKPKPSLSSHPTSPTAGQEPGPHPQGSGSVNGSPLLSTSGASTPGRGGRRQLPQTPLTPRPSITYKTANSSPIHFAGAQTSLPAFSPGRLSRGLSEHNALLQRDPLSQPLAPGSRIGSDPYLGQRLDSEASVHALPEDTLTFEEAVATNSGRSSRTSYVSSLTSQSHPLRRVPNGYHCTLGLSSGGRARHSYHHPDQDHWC
T3 sequence (P54284 whole entry partner): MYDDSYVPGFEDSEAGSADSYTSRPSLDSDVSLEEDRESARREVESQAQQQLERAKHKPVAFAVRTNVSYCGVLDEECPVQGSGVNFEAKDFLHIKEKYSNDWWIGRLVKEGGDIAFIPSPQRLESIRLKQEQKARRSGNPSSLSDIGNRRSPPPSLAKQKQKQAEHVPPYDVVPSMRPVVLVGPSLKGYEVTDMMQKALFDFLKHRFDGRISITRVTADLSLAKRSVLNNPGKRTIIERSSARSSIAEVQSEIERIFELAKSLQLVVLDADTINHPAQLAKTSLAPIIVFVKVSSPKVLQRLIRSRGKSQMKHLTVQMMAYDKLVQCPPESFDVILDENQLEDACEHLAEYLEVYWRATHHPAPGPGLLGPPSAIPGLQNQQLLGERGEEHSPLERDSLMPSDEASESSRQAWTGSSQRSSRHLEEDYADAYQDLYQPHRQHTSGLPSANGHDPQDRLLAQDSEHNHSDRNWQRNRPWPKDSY
T3 sequence (P54289 25-956 partner limits assumed): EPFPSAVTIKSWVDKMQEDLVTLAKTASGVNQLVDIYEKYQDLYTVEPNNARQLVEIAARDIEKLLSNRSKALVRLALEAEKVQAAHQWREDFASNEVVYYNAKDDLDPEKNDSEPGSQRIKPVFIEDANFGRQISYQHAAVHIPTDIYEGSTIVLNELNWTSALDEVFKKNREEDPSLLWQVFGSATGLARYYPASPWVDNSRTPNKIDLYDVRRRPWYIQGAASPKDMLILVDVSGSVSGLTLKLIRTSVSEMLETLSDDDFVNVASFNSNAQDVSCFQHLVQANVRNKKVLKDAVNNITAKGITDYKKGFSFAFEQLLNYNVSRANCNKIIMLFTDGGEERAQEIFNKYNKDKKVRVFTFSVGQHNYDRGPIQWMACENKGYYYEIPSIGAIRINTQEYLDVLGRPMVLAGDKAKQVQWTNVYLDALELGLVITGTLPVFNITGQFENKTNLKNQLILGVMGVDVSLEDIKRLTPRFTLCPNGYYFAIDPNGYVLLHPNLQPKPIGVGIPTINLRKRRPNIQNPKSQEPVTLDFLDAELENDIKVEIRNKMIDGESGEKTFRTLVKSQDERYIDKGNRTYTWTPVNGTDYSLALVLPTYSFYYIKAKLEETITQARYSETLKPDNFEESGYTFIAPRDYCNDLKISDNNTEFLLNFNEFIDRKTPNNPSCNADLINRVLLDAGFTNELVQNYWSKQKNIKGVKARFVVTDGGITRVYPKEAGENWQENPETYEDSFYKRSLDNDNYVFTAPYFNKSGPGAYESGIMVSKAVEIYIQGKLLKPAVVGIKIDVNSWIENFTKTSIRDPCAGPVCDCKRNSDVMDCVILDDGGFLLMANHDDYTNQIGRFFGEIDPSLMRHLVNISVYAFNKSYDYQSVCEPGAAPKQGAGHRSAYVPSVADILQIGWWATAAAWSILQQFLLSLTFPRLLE
T3 sequence (P54289 957-1103 partner limits assumed): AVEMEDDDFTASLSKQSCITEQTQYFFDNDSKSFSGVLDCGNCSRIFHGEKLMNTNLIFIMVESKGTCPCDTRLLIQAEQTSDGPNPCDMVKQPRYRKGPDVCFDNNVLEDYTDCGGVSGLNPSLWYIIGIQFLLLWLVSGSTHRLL
In short: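 HEK293 cells stably expressing CaV2.2 stained with CC2-DMPE/DiSBAC2(3) voltage-sensitive dyes (10 μM final CC2-DMPE, 30 min, RT), then compound added and cells electrically stimulated for 3-5 s. Read-out: background-subtracted 460/580 nm emission ratio; response R=Rf/Ri (post- vs pre-stimulus ratio); antagonism seen as reduced response.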

[9] = target: T1, NaV1.3; test: VIPR optical membrane potential assay with electrical stimulation, NaV1.3; type: cell-based; details: Table 9, NaV 1.3 receptors
In short: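 HEK293 cells stably expressing NaV1.3, stained with CC2-DMPE (10 μM final) then DiSBAC2(3) with ABSC1, 30 min each at RT; compounds added with oxonol. Electrical stimulation for 3 s; 460/580 nm background-subtracted emission ratio Rf/Ri, normalised to tetracaine (positive) and untreated (negative) controls.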

[10] = target: T2, NaV1.8; test: VIPR optical membrane potential assay, NaV1.8 (other subtypes in an analogous mode); type: cell-based; details: Table 9, NaV 1.8 receptors
In short: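 Cells expressing the NaV subtype stained with coumarin and DiSBAC2(3) membrane-potential dyes, then incubated with test compound for 20-30 minutes. Depolarization evoked by sodium addback and read optically on VIPR; block measured as reduced membrane-potential response, with tetracaine as positive control.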

Row | Compound | IC50 [8] | IC50 [9] | IC50 [10] | also measured
1 | NC1=N[C@H](O)[C@H]2[C@H]3O[C@]4(O)O[C@@H]([C@@H](O)[C@@]2(N1)[C@@H]4O)[C@]3(O)CO [TTX, tetrodotoxin] | – | – | – | IC50 [1]: 0.015 µM; IC50 [2]: 0.006 µM; IC50 [3]: > 50 µM; IC50 [4]: 1 µM; IC50 [5]: 0.01 µM; IC50 [6]: 0.01 µM
2 | NCC1(CC(=O)O)CCCCC1 [Gabapentin] | – | – | – | patients in whom it works [7]: 60%
3 | CC(C)N(C(=O)c1cnc(N2CCN(C)CC2)nc1-c1ccccc1F)c1ccccc1 [compound 23] | > 10 µM | > 10 µM | > 10 µM | –
4 | CC(C)N(C(=O)c1cnc(N2CCCCC2)nc1-c1ccccc1F)c1cccc(N(C)C)c1 [compound 152] | 2 to 10 µM | 2 to 10 µM | > 10 µM | –
5 | O=C(c1cnc(N2CCOCC2)nc1-c1ccccc1F)N(Cc1ccc(F)cc1)C1CC1 [compound 128] | 2 to 10 µM | 2 to 10 µM | > 10 µM | –
6 | O=C(c1cnc(N2CCSCC2)nc1-c1ccccc1F)N(Cc1ccccc1)C1CCC1 [compound 80] | 2 to 10 µM | 2 to 10 µM | > 10 µM | –
7 | COc1ccc(N(C(=O)c2cnc(N3CCCCC3)nc2-c2ccccc2Cl)C(C)C)cc1 [compound 43] | 2 to 10 µM | 2 to 10 µM | > 10 µM | –
8 | CC(C)N(Cc1ccccc1)C(=O)c1cnc(NCCc2cccc(C(F)(F)F)c2)nc1-c1ccccc1F [compound 173] | < 2 µM | 2 to 10 µM | > 10 µM | –
9 | CC(C)N(C(=O)c1cnc(N2CCOCC2)nc1-c1ccccc1F)c1ccc2c(c1)OCCO2 [compound 67] | > 10 µM | > 10 µM | > 10 µM | –
10 | COc1cccc(N(C(=O)c2cnc(N3CCCCC3)nc2-c2ccccc2Cl)C2CCC2)c1 [compound 27] | 2 to 10 µM | 2 to 10 µM | > 10 µM | –
11 | CC(C)N(C(=O)c1cnc(N2CCCCC2)nc1-c1ccccc1Cl)c1cccc(C(C)(C)C)c1 [compound 3] | > 10 µM | 2 to 10 µM | > 10 µM | –
12 | O=C(c1cnc(N2CCCCC2)nc1-c1ccccc1F)N(Cc1cccc(-c2ccncc2)c1)C1CC1 [compound 14] | 2 to 10 µM | > 10 µM | > 10 µM | –
13 | CC(C)N(Cc1ccccc1)C(=O)c1cnc(NCC(=O)O)nc1-c1ccccc1F [compound 153] | > 10 µM | > 10 µM | > 10 µM | –
14 | O=C(c1cnc(N2CCSCC2)nc1-c1ccccc1F)N1Cc2ccccc2C1 [compound 206] | > 10 µM | > 10 µM | > 10 µM | –
15 | COc1cccc(CN(C(=O)c2cnc(N3CCCCC3)nc2-c2ccccc2Cl)C(C)C)c1 [compound 55] | 2 to 10 µM | 2 to 10 µM | 2 to 10 µM | –
16 | COc1ccc(N(C(=O)c2cnc(N3CCOCC3)nc2-c2ccccc2F)C(C)C)cc1 [compound 185] | 2 to 10 µM | > 10 µM | > 10 µM | –
17 | CC(C)N(C(=O)c1cnc(N2CCCCC2)nc1-c1ccccc1F)c1ccc2c(c1)OCCO2 [compound 171] | 2 to 10 µM | 2 to 10 µM | > 10 µM | –
18 | CN1CCN(c2ncc(C(=O)N(Cc3ccccc3)C3CCC3)c(-c3ccccc3F)n2)CC1 [compound 180] | 2 to 10 µM | 2 to 10 µM | > 10 µM | –
19 | CC(C)N(C(=O)c1cnc(N2CCC3CCCCC3C2)nc1-c1ccccc1F)c1cccc(C#N)c1 (stereo not shown) [compound 54] | 2 to 10 µM | 2 to 10 µM | > 10 µM | –
20 | COc1cccc(N(C(=O)c2cnc(N3CCCCC3)nc2-c2ccccc2Cl)C2CC2)c1 [compound 58] | > 10 µM | > 10 µM | > 10 µM | –

Row | Compound | IC50 [8] | IC50 [9] | IC50 [10] | also measured
21 | O=C(NCCCc1ccccc1)c1cnc(N2CCOCC2)nc1-c1ccc(Oc2ccccc2)cc1 [compound 46] | > 10 µM | > 10 µM | > 10 µM | –
22 | CC(C)N(Cc1ccc2c(c1)OCO2)C(=O)c1cnc(N2CCC3CCCCC3C2)nc1-c1ccccc1F (stereo not shown) [compound 120] | < 2 µM | 2 to 10 µM | > 10 µM | –
23 | CC(C)N(Cc1ccccc1)C(=O)c1cnc(NCc2cccc3ccccc23)nc1-c1ccccc1F [compound 135] | 2 to 10 µM | > 10 µM | > 10 µM | –
24 | N=C(N)NCCCNC(=O)c1cnc(N2CCC3CCCCC3C2)nc1-c1ccccc1F (stereo not shown) [compound 102] | > 10 µM | > 10 µM | > 10 µM | –
25 | Cc1cccc(CN(C(=O)c2c(C)nc(N3CCOCC3)nc2-c2ccccc2F)C2CC2)c1 [compound 10] | 2 to 10 µM | 2 to 10 µM | > 10 µM | –
26 | COc1cccc(N(C(=O)c2cnc(N3CCCCC3)nc2-c2ccccc2F)C2CCCC2)c1 [compound 42] | 2 to 10 µM | 2 to 10 µM | > 10 µM | –
27 | O=C(c1cnc(N2CCOCC2)nc1-c1ccccc1F)N(Cc1ccncc1)C1CC1 [compound 205] | > 10 µM | > 10 µM | > 10 µM | –
28 | CC(C)N(C(=O)c1cnc(N2CCOCC2)nc1-c1ccccc1F)c1cccc(N(C)C)c1 [compound 111] | > 10 µM | > 10 µM | > 10 µM | –
29 | Cc1nc(N2CCOCC2)nc(-c2ccccc2F)c1C(=O)N(Cc1ccccc1)C1CC1 [compound 145] | 2 to 10 µM | 2 to 10 µM | > 10 µM | –
30 | Cc1nc(N2CCOCC2)nc(-c2ccccc2F)c1C(=O)N(Cc1ccc2c(c1)CCO2)C1CC1 [compound 200] | 2 to 10 µM | 2 to 10 µM | > 10 µM | –
31 | COc1cccc(N(C(=O)c2cnc(N3CCCCC3)nc2-c2ccccc2Cl)C(C)C)c1 [compound 175] | 2 to 10 µM | 2 to 10 µM | > 10 µM | –
32 | COc1ccc(N(C(=O)c2cnc(N3CCC4CCCCC4C3)nc2-c2ccccc2F)C(C)C)cc1 (stereo not shown) [compound 12] | < 2 µM | > 10 µM | > 10 µM | –
33 | COc1cccc(N(C(=O)c2cnc(N3CCOCC3)nc2-c2ccccc2F)C2CCC2)c1 [compound 190] | > 10 µM | 2 to 10 µM | > 10 µM | –
34 | CC(C)N(C(=O)c1cnc(N2CCCCC2)nc1-c1ccccc1F)c1cccc(O)c1 [compound 66] | 2 to 10 µM | > 10 µM | > 10 µM | –
35 | C=CCN(CC=C)c1ncc(C(=O)N(Cc2ccccc2)C(C)C)c(-c2ccccc2F)n1 [compound 156] | < 2 µM | 2 to 10 µM | 2 to 10 µM | –
36 | CC(C)N(C(=O)c1cnc(N2CCCCC2)nc1-c1ccccc1Cl)c1cccc(C#N)c1 [compound 101] | 2 to 10 µM | 2 to 10 µM | > 10 µM | –
37 | CCC(=O)C1(c2ccccc2)CCN(C(=O)c2cnc(N3CCOCC3)nc2-c2ccccc2F)CC1 [compound 57] | > 10 µM | > 10 µM | > 10 µM | –
38 | CC(C)N(C(=O)c1cnc(N2CCCCC2)nc1-c1ccccc1F)c1ccccc1 [compound 93] | 2 to 10 µM | 2 to 10 µM | > 10 µM | –
39 | O=C(c1cnc(N2CCSCC2)nc1-c1ccccc1F)N(Cc1ccccc1)C1CCCC1 [compound 157] | 2 to 10 µM | 2 to 10 µM | > 10 µM | –
